Source: ChEMBL document CHEMBL3885861, “Open TG-GATES”

Species: Rattus norvegicus
Assay: Open TG-GATES - Regimen: Single
Format: toxicity, organism-based, Sprague-Dawley
Parameters: regimen Single, gender Male, age 6 weeks
Details: in vivo, po, 0 mg/kg, route gavage, dose level Control; for APTT / Bas / Eos / Fbg / Hb / Ht / Lym / MCH / MCHC / MCV / Mono / Neu / PT / Plat / RBC / Ret / WBC: tissue Blood; for KIDNEY_L / KIDNEY_R / KIDNEY_TOTAL: tissue Kidney; for LIVER: tissue Liver; for A/G / ALP / ALT / AST / BUN / CRE / Ca / Cl / DBIL / GLC / IP / K / LDH / Na / PL / RALB / TBIL / TC / TG / TP / gamma-GTP: tissue Plasma

OCCOCCN1CCN(C(c2ccccc2)c2ccc(Cl)cc2)CC1 (configuration not stated) [HYDROXYZINE]
TERMINAL_BW (3 h): 191.8 g | APTT (3 h): 16.4 s | Bas (3 h): 0% | Eos (3 h): 0.8% | Fbg (3 h): 287 mg/dL | Hb (3 h): 13.2 g/dL | Ht (3 h): 41% | Lym (3 h): 78% | MCH (3 h): 21.5 pg | MCHC (3 h): 32.3% | MCV (3 h): 66.6 fL | Mono (3 h): 3% | Neu (3 h): 17.4% | PT (3 h): 15.4 s | Plat (3 h): 120.7 x10_4/uL | RBC (3 h): 616 x10_4/ul | Ret (3 h): 8.7% | WBC (3 h): 71.8 x10_2/uL | KIDNEY_L (3 h): 0.9 g | KIDNEY_R (3 h): 0.9 g | KIDNEY_TOTAL (3 h): 1.7 g | LIVER (3 h): 8.6 g | A/G (3 h): 0.8 | ALP (3 h): 1501.4 IU/L | ALT (3 h): 41 IU/L | AST (3 h): 73 IU/L | BUN (3 h): 9 mg/dL | CRE (3 h): 0.2 mg/dL | Ca (3 h): 10.9 mg/dL | Cl (3 h): 106 meq/L | DBIL (3 h): 0.012 mg/dL | GLC (3 h): 176.8 mg/dL | IP (3 h): 9.2 mg/dL | K (3 h): 4.2 meq/L | LDH (3 h): 61.8 IU/L | Na (3 h): 141.8 meq/L | PL (3 h): 138.6 mg/dL | RALB (3 h): 2.5 g/dL | TBIL (3 h): 0.056 mg/dL | TC (3 h): 75.4 mg/dL | TG (3 h): 68.8 mg/dL | TP (3 h): 5.4 g/dL | gamma-GTP (3 h): 1 IU/L | TERMINAL_BW (6 h): 194.9 g | APTT (6 h): 16.3 s | Bas (6 h): 0% | Eos (6 h): 0.4% | Fbg (6 h): 298.6 mg/dL | Hb (6 h): 13.1 g/dL | Ht (6 h): 40.8% | Lym (6 h): 76.2% | MCH (6 h): 21.7 pg | MCHC (6 h): 32.1% | MCV (6 h): 67.5 fL | Mono (6 h): 2.4% | Neu (6 h): 20.4% | PT (6 h): 15.3 s | Plat (6 h): 116.6 x10_4/uL | RBC (6 h): 604 x10_4/ul | Ret (6 h): 9% | WBC (6 h): 60.3 x10_2/uL | KIDNEY_L (6 h): 0.9 g | KIDNEY_R (6 h): 0.9 g | KIDNEY_TOTAL (6 h): 1.8 g | LIVER (6 h): 8.5 g | A/G (6 h): 0.9 | ALP (6 h): 1502.2 IU/L | ALT (6 h): 36.4 IU/L | AST (6 h): 68.8 IU/L | BUN (6 h): 9.2 mg/dL | CRE (6 h): 0.2 mg/dL | Ca (6 h): 10.9 mg/dL | Cl (6 h): 105.2 meq/L | DBIL (6 h): 0.012 mg/dL | GLC (6 h): 183.6 mg/dL | IP (6 h): 9.9 mg/dL | K (6 h): 4.2 meq/L | LDH (6 h): 56.2 IU/L | Na (6 h): 141.6 meq/L | PL (6 h): 147.6 mg/dL | RALB (6 h): 2.5 g/dL | TBIL (6 h): 0.058 mg/dL | TC (6 h): 81.4 mg/dL | TG (6 h): 52.6 mg/dL | TP (6 h): 5.3 g/dL | gamma-GTP (6 h): 0.8 IU/L | TERMINAL_BW (9 h): 191 g | APTT (9 h): 16.5 s | Bas (9 h): 0% | Eos (9 h): 0.8% | Fbg (9 h): 260.4 mg/dL | Hb (9 h): 12.9 g/dL | Ht (9 h): 39.9% | Lym (9 h): 73.4% | MCH (9 h): 20.5 pg | MCHC (9 h): 32.4% | MCV (9 h): 63.5 fL | Mono (9 h): 2.6% | Neu (9 h): 22.4% | PT (9 h): 15.2 s | Plat (9 h): 110.7 x10_4/uL | RBC (9 h): 631.2 x10_4/ul | Ret (9 h): 8.2% | WBC (9 h): 82.7 x10_2/uL | KIDNEY_L (9 h): 0.9 g | KIDNEY_R (9 h): 0.9 g | KIDNEY_TOTAL (9 h): 1.8 g | LIVER (9 h): 7.9 g | A/G (9 h): 0.9 | ALP (9 h): 1265.6 IU/L | ALT (9 h): 38 IU/L | AST (9 h): 75 IU/L | BUN (9 h): 9.4 mg/dL | CRE (9 h): 0.1 mg/dL | Ca (9 h): 10.6 mg/dL | Cl (9 h): 105.4 meq/L | DBIL (9 h): 0.012 mg/dL | GLC (9 h): 176.2 mg/dL | IP (9 h): 10.1 mg/dL | K (9 h): 4.2 meq/L | LDH (9 h): 55.4 IU/L | Na (9 h): 142 meq/L | PL (9 h): 129.4 mg/dL | RALB (9 h): 2.5 g/dL | TBIL (9 h): 0.068 mg/dL | TC (9 h): 76.8 mg/dL | TG (9 h): 21 mg/dL | TP (9 h): 5.4 g/dL | gamma-GTP (9 h): 1 IU/L | TERMINAL_BW (24 h): 204.1 g | APTT (24 h): 15.6 s | Bas (24 h): 0.2% | Eos (24 h): 0.8% | Fbg (24 h): 275.8 mg/dL | Hb (24 h): 13.1 g/dL | Ht (24 h): 40.4% | Lym (24 h): 80.2% | MCH (24 h): 21.6 pg | MCHC (24 h): 32.6% | MCV (24 h): 66.3 fL | Mono (24 h): 2.6% | Neu (24 h): 15.8% | PT (24 h): 16 s | Plat (24 h): 114.8 x10_4/uL | RBC (24 h): 609.2 x10_4/ul | Ret (24 h): 7.1% | WBC (24 h): 63.9 x10_2/uL | KIDNEY_L (24 h): 0.9 g | KIDNEY_R (24 h): 0.9 g | KIDNEY_TOTAL (24 h): 1.8 g | LIVER (24 h): 9.3 g | A/G (24 h): 0.9 | ALP (24 h): 1738.8 IU/L | ALT (24 h): 43.4 IU/L | AST (24 h): 71 IU/L | BUN (24 h): 14.8 mg/dL | CRE (24 h): 0.1 mg/dL | Ca (24 h): 11.2 mg/dL | Cl (24 h): 106.6 meq/L | DBIL (24 h): 0.014 mg/dL | GLC (24 h): 176.8 mg/dL | IP (24 h): 7.6 mg/dL | K (24 h): 4.5 meq/L | LDH (24 h): 64.4 IU/L | Na (24 h): 141.4 meq/L | PL (24 h): 147.8 mg/dL | RALB (24 h): 2.6 g/dL | TBIL (24 h): 0.056 mg/dL | TC (24 h): 75.2 mg/dL | TG (24 h): 75.4 mg/dL | TP (24 h): 5.7 g/dL | gamma-GTP (24 h): 0.8 IU/L
